The results in this text go back to ChEMBL document CHEMBL4765462, “Synthetic Lethality through the Lens of Medicinal Chemistry” (J Med Chem, 2020).

In data set [1] the target is T1, DNA repair protein RAD52 homolog (Homo sapiens) (UniProt P43351).
T1 sequence (whole entry): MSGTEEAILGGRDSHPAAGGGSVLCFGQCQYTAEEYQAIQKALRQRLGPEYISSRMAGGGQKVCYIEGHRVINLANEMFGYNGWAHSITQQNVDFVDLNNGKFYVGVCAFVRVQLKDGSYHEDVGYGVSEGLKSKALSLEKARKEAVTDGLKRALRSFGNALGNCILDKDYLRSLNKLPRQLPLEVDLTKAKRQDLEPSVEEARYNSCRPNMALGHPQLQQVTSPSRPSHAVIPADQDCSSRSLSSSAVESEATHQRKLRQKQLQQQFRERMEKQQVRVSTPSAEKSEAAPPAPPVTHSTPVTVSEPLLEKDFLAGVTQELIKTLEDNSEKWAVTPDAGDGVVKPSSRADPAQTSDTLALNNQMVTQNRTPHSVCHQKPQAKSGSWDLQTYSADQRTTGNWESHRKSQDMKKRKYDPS
As to the kind of experiment: Inhibition of FAM-conjugated ssDNA binding to His-tagged wild type RAD52 (unknown origin) expressed in Rosetta2(DE3)/pLysS cells measured after 30 mins by high-throughput fluorescence polarization assay relative to control. The arrangement: concentration or dose not given beside the values. (In general: Polarisation of emitted light reports the rotation of a fluorescent probe.)

In data set [2] the target is T2, DNA repair protein RAD52 homolog (Homo sapiens, UniProt P43351).
T2 sequence (P43351 whole entry): T1 sequence (whole entry)
As to the kind of experiment: Inhibition of FAM-conjugated ssDNA binding to His-tagged wild type RAD52 (unknown origin) expressed in Rosetta2(DE3)/pLysS cells measured after 30 mins by fluorescence polarization assay.

The nature of data set [3]: Antimigratory activity against human U-1242 cells at 3 uM incubated for 1 hr by scratch assay. It is filed as functional, U-1242MG.
Data set [4] relates to U-87 MG. As to the kind of experiment: Antimigratory activity against human U87 cells up to 10 microM incubated for 6 hrs by CellTiter-Glo luminescent cell viability assay relative to control. The data set is classed as functional, U-87MG ATCC. The conditions noted are these: dose microM <=10. (Cellular ATP, detected with luciferase, serves as a proxy for viable cell number.)

A short description of data set [5]: Inhibition of human placental DNA-PK/Ku using EPPLSQEAFADLWKK as substrate in presence of [32P]ATP incubated for 12 mins by scintillation counting method.
Data set [6] has as its target Cyclin-dependent kinase 12 (Homo sapiens, UniProt Q9NYV4). As to the kind of experiment: Inhibition of CDK12 (unknown origin).
The target of data set [7] is Cyclin-dependent kinase 13 (Homo sapiens, UniProt Q14004). As to the kind of experiment: Inhibition of CDK13 (unknown origin).
Data set [8] addresses Wee1-like protein kinase (Homo sapiens, UniProt P30291). As to the kind of experiment: Displacement of kinase tracer178 from recombinant WEE1 (unknown origin) incubated for 1 hr by lanthascreen TR-FRET assay. (TR-FRET usually uses a lanthanide donor and a delayed reading to cut background.)
Data set [9] addresses Serine-protein kinase ATM (Homo sapiens, UniProt Q13315). As to the kind of experiment: Inhibition of human HeLa nuclear extract derived ATM using glutathioneS-transferase-p53N66 as substrate preincubated for 10 mins followed by ATP addition and measured after 1 hr by ELISA.
The test system of data set [10] is BXPC-3. The data set is described as follows: Growth inhibition of BRCA2-proficient human BxPC3 cells at 10 uM assessed as cell survival incubated for 6 days with replacement of medium for every 3 days by CCK8 assay relative to control. The data set is classed as functional. To be noted: BXPC-3, 144 h, time 6 day, read-out: Survival.
Data set [11] relates to CAPAN-1. The data set is described as follows: Growth inhibition of BRCA2-deficient human Capan-1 cells at 10 uM incubated for 6 days with replacement of medium for every 3 days by CCK8 assay relative to control. The data set is classed as functional. To be noted: CAPAN-1, 144 h, time 6 day, read-out: GI.
Data set [12] concerns the target Serine/threonine-protein kinase mTOR (Homo sapiens, UniProt P42345). As to the kind of experiment: Inhibition of mTOR (unknown origin).
The target in data set [13] is Voltage-gated inwardly rectifying potassium channel KCNH2 (Homo sapiens, UniProt Q12809). The data set is described as follows: Inhibition of human ERG.
Sequence of Voltage-gated inwardly rectifying potassium channel KCNH2 (Q12809 whole entry): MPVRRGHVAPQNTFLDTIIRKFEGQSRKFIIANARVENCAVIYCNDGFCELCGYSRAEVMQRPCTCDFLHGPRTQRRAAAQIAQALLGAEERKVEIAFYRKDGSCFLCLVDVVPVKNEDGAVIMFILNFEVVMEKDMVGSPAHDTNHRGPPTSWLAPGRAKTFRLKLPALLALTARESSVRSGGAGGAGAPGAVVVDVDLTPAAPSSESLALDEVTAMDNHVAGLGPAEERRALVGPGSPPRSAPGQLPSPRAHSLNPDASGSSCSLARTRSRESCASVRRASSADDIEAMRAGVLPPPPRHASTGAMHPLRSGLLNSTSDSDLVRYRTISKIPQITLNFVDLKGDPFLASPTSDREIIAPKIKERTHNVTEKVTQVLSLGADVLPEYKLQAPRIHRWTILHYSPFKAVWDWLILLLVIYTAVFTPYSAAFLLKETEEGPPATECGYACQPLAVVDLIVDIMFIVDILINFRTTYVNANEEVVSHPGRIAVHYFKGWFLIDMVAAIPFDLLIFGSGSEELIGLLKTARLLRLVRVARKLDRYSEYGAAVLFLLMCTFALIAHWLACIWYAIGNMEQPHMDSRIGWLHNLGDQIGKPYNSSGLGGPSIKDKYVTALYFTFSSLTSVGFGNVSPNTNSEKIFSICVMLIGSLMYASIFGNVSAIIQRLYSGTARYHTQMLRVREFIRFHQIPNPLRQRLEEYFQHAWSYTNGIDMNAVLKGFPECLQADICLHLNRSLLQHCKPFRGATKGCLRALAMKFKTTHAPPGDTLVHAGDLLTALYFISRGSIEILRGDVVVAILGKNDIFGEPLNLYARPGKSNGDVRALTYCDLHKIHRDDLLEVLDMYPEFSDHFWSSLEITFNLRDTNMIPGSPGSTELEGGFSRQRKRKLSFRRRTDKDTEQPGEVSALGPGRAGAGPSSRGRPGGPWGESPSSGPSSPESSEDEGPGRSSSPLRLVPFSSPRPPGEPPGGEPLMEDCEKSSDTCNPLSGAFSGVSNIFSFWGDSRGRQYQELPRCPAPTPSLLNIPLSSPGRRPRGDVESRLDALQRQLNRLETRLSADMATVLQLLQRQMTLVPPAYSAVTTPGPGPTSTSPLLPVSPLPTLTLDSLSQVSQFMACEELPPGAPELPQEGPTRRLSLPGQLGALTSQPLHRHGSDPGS
Data set [14] is described as follows: Inhibition of DNA-PK (unknown origin). More on the design: species or system Homo sapiens.
Data set [15] addresses Serine/threonine-protein kinase ATR (Homo sapiens, UniProt Q13535). As to the kind of experiment: Inhibition of ATR (unknown origin).
Data set [16] deals with NUAK family SNF1-like kinase 1 (Homo sapiens) (UniProt O60285). As to the kind of experiment: Inhibition of human NUAK1 expressed in baculovirus expression system at 1 uM relative to control.
The target of data set [17] is Macrophage colony-stimulating factor 1 receptor (Homo sapiens) (UniProt P07333). As to the kind of experiment: Inhibition of human CSF1R expressed in baculovirus expression system at 1 uM relative to control.
Sequence of Macrophage colony-stimulating factor 1 receptor (Homo sapiens) (P07333 whole entry): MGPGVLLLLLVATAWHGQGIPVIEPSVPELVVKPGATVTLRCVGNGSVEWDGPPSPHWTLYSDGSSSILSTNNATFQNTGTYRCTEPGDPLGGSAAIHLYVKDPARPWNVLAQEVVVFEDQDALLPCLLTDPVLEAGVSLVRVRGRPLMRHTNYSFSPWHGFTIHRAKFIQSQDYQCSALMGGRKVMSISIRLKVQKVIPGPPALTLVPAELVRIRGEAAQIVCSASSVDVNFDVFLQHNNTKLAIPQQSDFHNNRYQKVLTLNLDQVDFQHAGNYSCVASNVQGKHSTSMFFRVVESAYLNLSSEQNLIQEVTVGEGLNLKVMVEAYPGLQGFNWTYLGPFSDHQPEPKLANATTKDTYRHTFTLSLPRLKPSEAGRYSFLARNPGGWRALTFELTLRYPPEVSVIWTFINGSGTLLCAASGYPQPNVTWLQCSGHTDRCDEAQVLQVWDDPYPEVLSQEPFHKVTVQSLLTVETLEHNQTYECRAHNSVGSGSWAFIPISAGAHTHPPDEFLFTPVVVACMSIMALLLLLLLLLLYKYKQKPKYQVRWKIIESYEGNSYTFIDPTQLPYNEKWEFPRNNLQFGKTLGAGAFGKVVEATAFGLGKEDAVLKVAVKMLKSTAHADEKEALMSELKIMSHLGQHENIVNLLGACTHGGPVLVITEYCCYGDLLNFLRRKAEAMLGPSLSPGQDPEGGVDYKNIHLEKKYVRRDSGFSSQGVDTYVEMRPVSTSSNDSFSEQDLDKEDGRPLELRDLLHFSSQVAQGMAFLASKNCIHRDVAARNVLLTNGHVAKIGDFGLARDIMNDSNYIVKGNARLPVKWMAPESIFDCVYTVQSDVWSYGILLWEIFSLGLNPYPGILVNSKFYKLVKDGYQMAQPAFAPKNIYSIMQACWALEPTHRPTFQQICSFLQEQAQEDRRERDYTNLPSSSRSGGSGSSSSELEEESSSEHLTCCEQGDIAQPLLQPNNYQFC
Data set [18] concerns the target Serine/threonine-protein kinase Sgk1 (Homo sapiens) (UniProt O00141). The data set is described as follows: Inhibition of human SGK expressed in baculovirus expression system at 1 uM relative to control.
In data set [19] the test system is HCC38. As to the kind of experiment: Potentiation of veliparib-induced cytotoxicity against human HCC38 cells incubated for 7 days by celltiter-Glo assay relative to control. The data set is classed as functional. The conditions noted are these: time 7 day.
The test system of data set [20] is BT-20. As to the kind of experiment: Potentiation of veliparib-induced cytotoxicity against human BT20 cells incubated for 7 days by celltiter-Glo assay relative to control. It is filed as functional. The conditions noted are these: time 7 day.
For data set [21], the system named is MDA-MB-231. The data set is described as follows: Potentiation of veliparib-induced cytotoxicity against human MDA-MB-231 cells incubated for 7 days by celltiter-Glo assay relative to control. It is filed as functional. The conditions noted are these: time 7 day.
Data set [22] deals with MDA-MB-436. As to the kind of experiment: Potentiation of veliparib-induced cytotoxicity against human MDA-MB-436 cells incubated for 7 days by celltiter-Glo assay relative to control. The data set is classed as functional. The conditions noted are these: time 7 day.
Data set [23] concerns SUM149PT. The data set is described as follows: Potentiation of veliparib-induced cytotoxicity against human SUM149PT cells incubated for 7 days by celltiter-Glo assay relative to control. The data set is classed as functional. To be noted: time 7 day.
The subject of data set [24] is Hs-578T. The data set is described as follows: Potentiation of veliparib-induced cytotoxicity against human Hs578T cells incubated for 7 days by celltiter-Glo assay relative to control. It is filed as functional. The conditions noted are these: time 7 day.
Data set [25] concerns BT-549. The data set is described as follows: Potentiation of veliparib-induced cytotoxicity against human BT549 cells incubated for 7 days by celltiter-Glo assay relative to control. The data set is classed as functional. The conditions noted are these: time 7 day.
The test system of data set [26] is HCC1937. The data set is described as follows: Potentiation of veliparib-induced cytotoxicity against human HCC1937 cells incubated for 7 days by celltiter-Glo assay relative to control. The data set is classed as functional. To be noted: time 7 day.
Data set [27] relates to MDA-MB-468. The data set is described as follows: Potentiation of veliparib-induced cytotoxicity against human MDA-MB-468 cells incubated for 7 days by celltiter-Glo assay relative to control. The data set is classed as functional. To be noted: time 7 day.
Data set [28] concerns the target Cyclin-dependent kinase 1 (Homo sapiens, UniProt P06493). The data set is described as follows: Inhibition of CDK1 (unknown origin).
Data set [29] concerns the target T2, DNA repair protein RAD52 homolog. The data set is described as follows: Inhibition of 6His-tagged human RD52 assessed as reduction in RD52 binding to Cy3-dT30-Cy5 ssDNA incubated for 30 mins by FRET assay.

Sequence of Serine/threonine-protein kinase ATR (Q13535 whole entry): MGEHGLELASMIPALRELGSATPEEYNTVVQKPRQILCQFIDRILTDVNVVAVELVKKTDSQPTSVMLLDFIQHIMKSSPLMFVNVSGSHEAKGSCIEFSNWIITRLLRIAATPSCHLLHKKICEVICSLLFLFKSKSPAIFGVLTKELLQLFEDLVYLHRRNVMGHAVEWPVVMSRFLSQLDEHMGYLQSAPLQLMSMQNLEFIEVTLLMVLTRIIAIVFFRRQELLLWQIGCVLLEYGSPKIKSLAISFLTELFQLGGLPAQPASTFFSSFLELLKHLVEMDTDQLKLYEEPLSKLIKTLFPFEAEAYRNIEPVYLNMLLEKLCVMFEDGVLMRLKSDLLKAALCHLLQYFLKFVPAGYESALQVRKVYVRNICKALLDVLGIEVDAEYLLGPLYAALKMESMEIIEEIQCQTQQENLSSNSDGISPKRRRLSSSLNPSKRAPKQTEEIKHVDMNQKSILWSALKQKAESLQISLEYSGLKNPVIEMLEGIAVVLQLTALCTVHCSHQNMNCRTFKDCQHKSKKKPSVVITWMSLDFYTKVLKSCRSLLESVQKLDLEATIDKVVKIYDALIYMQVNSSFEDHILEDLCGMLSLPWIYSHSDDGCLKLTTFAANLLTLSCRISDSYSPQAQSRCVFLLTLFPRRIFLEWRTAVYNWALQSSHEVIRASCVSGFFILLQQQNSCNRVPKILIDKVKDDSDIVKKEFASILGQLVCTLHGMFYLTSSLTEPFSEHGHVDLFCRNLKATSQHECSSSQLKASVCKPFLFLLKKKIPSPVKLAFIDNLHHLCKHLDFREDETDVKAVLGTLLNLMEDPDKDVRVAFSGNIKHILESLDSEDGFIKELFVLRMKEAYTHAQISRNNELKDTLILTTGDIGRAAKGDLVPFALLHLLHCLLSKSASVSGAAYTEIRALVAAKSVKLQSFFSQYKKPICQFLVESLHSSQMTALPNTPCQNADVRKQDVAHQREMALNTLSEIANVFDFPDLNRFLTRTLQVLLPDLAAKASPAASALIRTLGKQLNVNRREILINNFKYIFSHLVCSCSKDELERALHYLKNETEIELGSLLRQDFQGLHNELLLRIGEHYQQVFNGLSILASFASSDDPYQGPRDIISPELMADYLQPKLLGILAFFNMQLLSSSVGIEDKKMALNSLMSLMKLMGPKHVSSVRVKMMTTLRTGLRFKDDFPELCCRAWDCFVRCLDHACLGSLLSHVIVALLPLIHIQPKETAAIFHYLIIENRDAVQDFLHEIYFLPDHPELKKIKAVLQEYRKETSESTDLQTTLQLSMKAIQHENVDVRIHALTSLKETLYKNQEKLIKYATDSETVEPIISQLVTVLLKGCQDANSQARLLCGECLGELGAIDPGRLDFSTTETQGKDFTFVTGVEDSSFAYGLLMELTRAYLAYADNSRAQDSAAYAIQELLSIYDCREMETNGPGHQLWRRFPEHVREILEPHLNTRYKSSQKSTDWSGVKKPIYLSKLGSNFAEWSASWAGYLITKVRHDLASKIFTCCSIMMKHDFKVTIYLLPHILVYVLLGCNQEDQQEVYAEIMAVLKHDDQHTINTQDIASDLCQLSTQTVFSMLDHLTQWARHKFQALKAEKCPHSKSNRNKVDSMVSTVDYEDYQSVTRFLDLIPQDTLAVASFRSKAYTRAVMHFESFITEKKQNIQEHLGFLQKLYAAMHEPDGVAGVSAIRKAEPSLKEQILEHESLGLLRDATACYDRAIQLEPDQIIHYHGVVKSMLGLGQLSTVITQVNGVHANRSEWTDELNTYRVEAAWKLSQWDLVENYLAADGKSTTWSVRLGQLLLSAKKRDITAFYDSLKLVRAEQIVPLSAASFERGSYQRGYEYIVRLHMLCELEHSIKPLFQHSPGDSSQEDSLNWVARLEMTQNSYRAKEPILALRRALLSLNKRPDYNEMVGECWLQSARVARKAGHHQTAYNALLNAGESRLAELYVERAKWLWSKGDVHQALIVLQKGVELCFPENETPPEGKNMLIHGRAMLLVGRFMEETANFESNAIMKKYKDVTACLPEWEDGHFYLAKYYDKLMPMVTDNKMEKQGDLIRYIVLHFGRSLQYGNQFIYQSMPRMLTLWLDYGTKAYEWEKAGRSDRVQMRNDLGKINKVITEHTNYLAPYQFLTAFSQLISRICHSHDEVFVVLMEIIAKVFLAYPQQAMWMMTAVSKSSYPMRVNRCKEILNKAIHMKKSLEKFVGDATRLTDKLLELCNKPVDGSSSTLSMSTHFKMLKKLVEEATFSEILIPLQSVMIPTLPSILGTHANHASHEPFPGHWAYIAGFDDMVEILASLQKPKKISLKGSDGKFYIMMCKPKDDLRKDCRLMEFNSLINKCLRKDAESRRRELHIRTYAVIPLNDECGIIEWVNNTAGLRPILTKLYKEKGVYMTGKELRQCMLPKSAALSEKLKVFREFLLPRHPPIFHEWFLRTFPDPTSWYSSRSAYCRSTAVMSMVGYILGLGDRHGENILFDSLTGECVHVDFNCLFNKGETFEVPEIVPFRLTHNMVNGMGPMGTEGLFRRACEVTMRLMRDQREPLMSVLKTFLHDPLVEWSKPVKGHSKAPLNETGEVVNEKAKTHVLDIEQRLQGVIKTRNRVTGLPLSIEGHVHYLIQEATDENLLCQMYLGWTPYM
Sequence of Cyclin-dependent kinase 1 (P06493 whole entry): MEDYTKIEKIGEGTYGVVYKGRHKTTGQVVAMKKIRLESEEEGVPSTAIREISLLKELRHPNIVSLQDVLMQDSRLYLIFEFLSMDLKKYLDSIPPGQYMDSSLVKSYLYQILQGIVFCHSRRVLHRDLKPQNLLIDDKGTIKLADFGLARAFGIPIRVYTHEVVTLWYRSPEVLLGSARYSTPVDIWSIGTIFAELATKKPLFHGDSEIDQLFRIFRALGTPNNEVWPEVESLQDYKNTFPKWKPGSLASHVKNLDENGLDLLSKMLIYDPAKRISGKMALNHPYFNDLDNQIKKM

In the case of `NC(Cc1cc(O)c(O)cc1O)C(=O)O` (stereo not given), the inhibition (commonly the percentage by which the read-out fell short of the control) in data set [1] is > 60%. Moreover, the half-maximal inhibitory concentration (IC50) (as a rule, the concentration that inhibits the measured activity by half) in data set [2] amounted to 1100 nM.

As to `C[C@@H]1CN(CC(=O)Nc2ccc3c(c2)Cc2cccc(-c4cc(=O)cc(N5CCOCC5)o4)c2S3)C[C@H](C)O1`, the Activity in [3] was >50%; in data set [4], >70%.

As to `CCc1[nH]c(/C=C2\C(=O)Nc3ccc(S(=O)(=O)Nc4ccccc4)cc32)c(CC)c1CCC(=O)O`, the IC50 in data set [5] came out at 130 nM.

Regarding `CN(C)C/C=C/C(=O)Nc1ccc(C(=O)Nc2cccc(Nc3ncc(Cl)c(-c4c[nH]c5ccccc45)n3)c2)cc1`, the IC50 in [6] was 864 nM; in [7] it was 225 nM.

As to `O=C1NC(=S)NC(=O)C1=C/C=C/c1ccco1`, the inhibition in data set [1] is > 60%. Besides, in data set [2], the IC50 was < 5000 nM.

Take `Cn1cccc1C=CC(=O)O`: in data set [1], the inhibition was > 60%. Further, the 50% inhibitory concentration (IC50) in [2] is < 5000 nM.

On to `C=CCn1c(=O)c2cnc(Nc3ccc(N4CCN(C(=O)OC)CC4)cc3)nc2n1-c1cccc(C(C)(C)O)n1`, for which the IC50 in data set [8] stood at 2.8 nM.

For the compound `CC(C)Oc1c(-c2ccco2)c(=O)c1=O`, in data set [1], the inhibition was > 60%. The IC50 in [2] is < 5000 nM.

Take `Oc1ccc(N=Cc2ccc[nH]2)cc1N=Cc1ccc[nH]1`: in [1], the inhibition is > 60%. In data set [2], the half-maximal inhibitory concentration (IC50) is < 5000 nM.

For `O=C(O)c1ccc(/C=N/c2nc[nH]n2)cc1`, in data set [1], the inhibition was > 60%. In addition, the half-inhibitory concentration (IC50) in data set [2] was < 5000 nM.

For the compound `O=c1cc(-c2cccc3c2Sc2ccccc2S3)oc(N2CCCCC2)c1`, the 50% inhibitory concentration (IC50) in [9] came out at 2960 nM.

Regarding `O=C1C=CC(=NOS(=O)(=O)c2cc(Cl)ccc2Cl)C=C1`, in [1], the inhibition is > 60%. Also, in data set [2], the IC50 was < 5000 nM.

As for `Cn1cccc1C=C1C(=O)NC(=S)NC1=O`, the inhibition in data set [1] is > 60%. The IC50 in [2] is < 5000 nM.

With `Cc1ccc2[nH]c(CCc3cccc(NC(=O)C4CCCN(S(=O)(=O)N5CCCC5)C4)c3)nc2c1` (stereo not given), the viability at 10 µM in data set [10] was > 90%. In addition, the inhibition of growth at 10 µM in [11] was determined as 50%.

As for `O=C(O)C1=CC(=C(c2ccc(O)c(C(=O)O)c2)c2ccc(O)c(C(=O)O)c2)C=CC1=O` [AURINTRICARBOXYLIC ACID], in data set [1], the inhibition was > 60%. Also, in [2], the IC50 was < 5000 nM.

For `CC(C)n1c(=O)n(C)c2cnc3cc(F)c(-c4ccc(OCCCN5CCCCC5)nc4)cc3c21` [AZD-1390], the IC50 in data set [12] is ≥ 1000 nM; in data set [13], 6550 nM; in [14], ≥ 1000 nM; in data set [15], ≥ 1000 nM. Also, the inhibition in [16], in data set [17] and in data set [18] was > 50% each time.

`Cc1cc2ncnn2cc1Nc1ncc2c(n1)n(C1CCOCC1)c(=O)n2C` [AZD-7648] gave an IC50 in data set [14] of 0.6 nM.

Regarding `CCc1cnn2c(NCc3ccc[n+]([O-])c3)cc(N3CCCC[C@H]3CCO)nc12` [DINACICLIB], the “fold change (FC)” value in [19], in data set [20], in data set [21], in data set [22], in data set [23] and in data set [24] was 2.5 in each case. Moreover, the “fold change (FC)” value in [25], in data set [26] and in [27] was 2.5 each time.

As to `Cc1cc2c(C(C)C)c(O)c(O)c(C=O)c2c(O)c1-c1c(C)cc2c(C(C)C)c(O)c(O)c(C=O)c2c1O` [GOSSYPOL], the inhibition in data set [1] was > 60%. For the same compound, the IC50 in data set [2] is < 5000 nM.

In the case of `Nc1nn2cc(F)cnc2c1C(=O)Nc1cncc(F)c1N1CCC(C(=O)N2CCN(C3COC3)CC2)CC1` [M4344], the Ki (commonly a measure of affinity in units of concentration, obtained from inhibition or displacement) in [15] is ≤ 0.15 nM.

In the case of `COc1ccc([C@@H](O)c2cc(-c3ncnc4cc(N5CCOCC5)ccc34)c(F)cc2Cl)nn1` [NEDISERTIB], in data set [14], the 50% inhibitory concentration (IC50) was ≤ 3 nM.

Turning to `CCN(CC)CCOc1ccc(Nc2ncc3cc(-c4c(Cl)cccc4Cl)c(=O)n(C)c3n2)cc1` [PD-0166285], the IC50 in data set [28] was < 100 nM.

With `O=C(O[C@@H]1O[C@@H]2COC(=O)c3cc(O)c(O)c(O)c3-c3c(cc(O)c(O)c3O)C(=O)O[C@H]2[C@H](O)[C@H]1O)c1cc(O)c(O)c(O)c1` [STRICTININ], in [29], the IC50 was 1500 nM.
